Source: patent EP0821003B1, “PEPTIDES AND REMEDY FOR AUTOIMMUNE DISEASES COMPRISING THE SAME” (Aventis Pharma Ltd., priority 1995, dated 2003)
Non-standard residues stand in square brackets, D forms with d. Residues, ends and D or L forms follow the SMILES beside them. No end group written: not given here.

Tests used:
[1] = tested on: anti-KLH antibody production; assay: Suppressive effect on anti-KLH antibody production in mice (ELISA of serum IgG); assay type: in vivo, Balb/c mice; settings: for Anti-KLH IgG antibody titer (unit ± SD): Example 3, 100 µg subcutaneously day 5 and day 3 prior to KLH, blood day 21 after antigen; for Anti-KLH IgG antibody titer (unit ± SD) / Anti-KLH antibody titer (unit ± SD): 8 mice per group; for antibody production (anti-KLH) / Anti-KLH antibody titer (unit ± SD): Example 7; for Anti-KLH antibody titer (unit ± SD): in a similar manner to Example 3
Procedure: Day 5 and day 3 prior to the antigen administration, 100 µg of each Peptide (I) to (VI) of the present invention composed of 9 amino acid residues indicated by Sequence ID No. 1 in the Sequence Listing were dissolved in 200 µl of physiological saline. The resulting solution was subcutaneously administered to 9-week-old Balb/c mice. As a control, a non-administered group to which the same amount of physiological saline was administered was employed. In 200 µl of physiological saline, 25 µg of KLH were dissolved as an antigen and the resulting solution was subcutaneously administered. The blood was collected on day 21 after antigen administration and an antibody titer was measured by the method which is described below.
KLH was diluted to 10 µg/ml with a phosphate buffered physiological saline (PBS). Fifty µl portions of the resulting solution were poured into a 96-well microplate and the plate was allowed to stand at 4iC overnight. After the microplate was washed three times with 0.05% Tween-20-containing PBS (T-PBS), 200 µl portions of 0.5% casein tris-buffered physiological saline (casein TBS) were poured into wells, respectively. […] The microplate was washed three times with T-PBS and 50 µl portions of the mouse serum diluted to 1/200 with casein TBS were poured into the wells, followed by reaction for one hour (primary reaction).
The resulting microplate was washed three times with T-PBS, to which 50 µl portions of an anti-mouse IgG-peroxidase-labeled antibody (TAGO Co.) diluted to 1/4000 with casein TBS were poured. The reaction was effected at room temperature for one hour (secondary reaction). After the completion of the secondary reaction, the plate was washed three times again. Fifty µl portions of a substrate liquid/chromogen (chromogen substrate: Behringwerke AG) were poured into wells, respectively, followed by reaction at room temperature for 30 minutes. After the completion of the reaction, 0.5N diluted sulfuric acid was added to terminate the reaction and an absorbance at 450 nm was measured by a colorimeter ("BEP-II", product of Behringwerke AG/Germany) with the absorbance at 650 nm as a control.
In a similar manner to Example 3, suppressive effects of Peptides (I), (VII) to (XV) on anti-KLH antibody production in mice were studied.

[2] = tested on: anti-OVA antibody production; assay: Suppressive effect on anti-OVA antibody production in mice (ELISA of serum IgG); assay type: in vivo, Balb/c mice; design: Anti OVA Ig-G antibody titer (unit): dose or concentration left out as unconfirmed; settings: for Anti-OVA antibody titer: in a similar manner to Example 2
Procedure: Day 5 and day 3 prior to the antigen administration, Peptide (I) composed of 9 amino acid residues as indicated by Sequence ID No. 1 in the Sequence Listing of the present invention and a synthetic peptide 15 composed of 15 amino acid residues derived from clone 17.2 TcR, which peptide had been reported by Mohapatra et al. as described above, 100 g each, were dissolved in 200 of physiological saline and each solution thus obtained was subcutaneously administered to 9-week-old Balb/c mice. As a control, a non-administered group to which the same amount of physiological saline was administered was employed. In 200 I of physiological saline, 100 g of OVA (Sigma Chemical Co.) were dissolved, followed by subcutaneous administration. Blood was collected on day 21 after antigen administration and an antibody titer was measured by the method described below.
OVA was diluted to 10 µg/ml with phosphate buffered saline (PBS) and 50 I portions of the solution were poured in a 96-well microplate. The coating operation was conducted overnight at […]. The microplate was then washed three times with a 0.05% Tween-20-containing PBS (T-PBS). 200 portions of 0.5% casein-containing tris buffered physiological saline (casein TBS) were poured in each well and the microplate was allowed to stand at room temperature for one hour. The microplate was then washed three times with T-PBS. After the serum of the blood collected from the mice was diluted to 1/200 with 0.5% casein TBS, 50 I portions of the diluted serum were poured in each well and the plate was allowed to stand for one hour (primary reaction).
After the completion of the primary reaction, the microplate was washed three times with T-PBS. Fifty I portions of anti-mouse IgG-peroxidase-labeled antibody (TAGO Co.) diluted to 1/4000 with 0.5% casein TBS were poured in each well, followed by reaction at room temperature for one hour (secondary reaction). After the completion of the secondary reaction, the plate was washed three times again. Fifty I portions of a substrate liquid/chromogen (chromogen substrate: Behringwerke AG) were poured in each well, followed by reaction at room temperature for 30 minutes. After the completion of the reaction, 0.5N diluted sulfuric acid was added to terminate the reaction and an absorbance at 450 nm was measured by a colorimeter ("BEP-II", product of Behringwerke AG/Germany) with an absorbance at 650 nm as a control.
In a similar manner to Example 2, the suppressive effects of Peptides (I), (VII) to (XIV) on the anti-OVA antibody production in mice were measured.

EAE model mice = assay: Onset suppressive effect on EAE model mice (clinical score); assay type: in vivo, SJL mouse; design: key to average score ± SD: EAE onset score per Pettinelli et al. 1982 criteria; settings: for average score ± SD: score 0-6
Procedure: As an antigen, guinea pig spinal chord homogenate was employed. The guinea pig spinal chord homogenate was diluted with PBS to be 6.6 mg/ml, followed by the addition of the equivalent amount of Freund ? s complete adjuvant. The resulting mixture was formed into an emulsion by an ultrasonic sonicator. The resulting emulsion was administered to two areas under the lateral skin in a total amount of 300 µl. Day 5 and day 3 prior to antigen administration, and 5 days a week for 4 weeks after antigen administration, the solution of Peptide (I) dissolved in 100 µl physiological saline was subcutaneously administered to a 14-week old SJL mouse. Incidentally, in order to increase an onset ratio, […] of pertussis toxin (PTX) were intravenously administered as an enhancer on the day of antigen administration and two days after antigen administration. Observation of the onset was performed from day 14 to day 28 after primary antigen administration. The onset was scored based on the following standard criteria [Pettinelli, C. B., Fritz, D. E., and McFarlin, D. E. J. Immunl., 129, No. 3, 1024-1028 (1982)]. In Table 3, values of average score + standard deviation (SD) in each administration group on day 22, day 25 and day 28 after primary antigen administration are shown.

[3] = compared with the non-administered group and Peptide (I) administered group
[4] = Example 8, compared with the non-administered group and Peptide (I) administered group
[5] = compared with Peptide (I) administered group
[6] = Example 8, compared with Peptide (I) administered group

Molecule	Anti-KLH IgG antibody titer (unit ± SD) [1] [unit]	Anti-KLH antibody titer (unit ± SD) [1] [unit]	Anti-OVA antibody titer ([2]; Example 8, 8 mice per group)	antibody production (anti-KLH) [1, 5]	further results
CC(C)C[C@@H](NC(=O)[C@@H](CCCCN)NC(=O)[C@@H](C)N)C(=O)N[C@@H](C(=O)N[C@H](Cc1ccccc1)C(=O)NCC(=O)N[C@H](CCCCN)C(=O)NCC(=O)N[C@@H](C(=O)O)[C@H](C)O)[C@H](C)O [Peptide (II)] (H-[dA][dK][dL][dT][dF]G[dK]G[dT]-OH)	48.4 ± 13.1	–	–	–	–
AKLAFGKG [Peptide (IX)]	–	33.9 ± 13.7	10.4 ± 6.3	–	antibody production (anti-KLH) [1, 3]: significantly suppressed; antibody production (anti-OVA) [2, 4]: significantly suppressed
AKLTFGKA [Peptide (XII)]	–	49.5 ± 40.1	50.9 ± 26.7	not suppressed	–
CC(=O)N[C@H](C)C(=O)N[C@H](CCCCN)C(=O)N[C@H](CC(C)C)C(=O)N[C@@H](C(=O)N[C@H](Cc1ccccc1)C(=O)NCC(=O)N[C@H](CCCCN)C(=O)NCC(=O)N[C@@H](C(N)=O)[C@H](C)O)[C@H](C)O [Peptide (VI)] (Ac-[dA][dK][dL][dT][dF]G[dK]G[dT]-NH2)	29.5 ± 19.5	–	–	–	–
AALTFGKG [Peptide (VIII)]	–	44.9 ± 18.1	65.3 ± 34.7	not suppressed	–
Ac-AKLTFGKGT [Peptide (III)]	50.1 ± 25.8	–	–	–	–
KLTFGKG [Peptide (XV)]	–	86.4 ± 27.8	–	not suppressed	–
AKLTAGKG [Peptide (XIV)]	–	59.9 ± 32.8	90.9 ± 89.5	not suppressed	antibody production (anti-OVA) [2, 6]: not suppressed
AKLTFAKG [Peptide (X)]	–	26.5 ± 22.0	49.8 ± 28.4	–	antibody production (anti-KLH) [1, 3]: significantly suppressed
CC(=O)N[C@H](C)C(=O)N[C@H](CCCCN)C(=O)N[C@H](CC(C)C)C(=O)N[C@@H](C(=O)N[C@H](Cc1ccccc1)C(=O)NCC(=O)N[C@H](CCCCN)C(=O)NCC(=O)N[C@@H](C(=O)O)[C@H](C)O)[C@H](C)O [Peptide (V)] (Ac-[dA][dK][dL][dT][dF]G[dK]G[dT]-OH)	37.7 ± 17.7	–	–	–	–
AKATFGKG [Peptide (XIII)]	–	68.9 ± 25.1	193.5 ± 155.9	not suppressed	antibody production (anti-OVA) [2, 6]: not suppressed
AKLTFGKG [Peptide (VII)]	–	25.9 ± 15.4	20.9 ± 21.4	–	antibody production (anti-KLH) [1, 3]: significantly suppressed; antibody production (anti-OVA) [2, 4]: significantly suppressed
AKLTFGKGT [Peptide (I)]	78.7 ± 28.3	39.5 ± 16.1	23.8 ± 12.4	–	antibody production (anti-OVA) ([2]; Example 2, compared with the non-administered group): significantly suppressed; Anti OVA Ig-G antibody titer (unit) ([2]; Example 2, subcutaneously day 5 and day 3 prior to OVA, blood day 21 after antigen, 8 mice per group, mean ± spread): 8.8 ± 10.8 unit; average score ± SD (EAE model mice; 1 µg/body subcutaneously, Day 22 after primary antigen administration): 1.6 ± 1.8; average score ± SD (EAE model mice; 1 µg/body subcutaneously, Day 25 after primary antigen administration): 0.9 ± 1.1; average score ± SD (EAE model mice; 1 µg/body subcutaneously, Day 28 after primary antigen administration): 1.8 ± 1.9; onset of EAE (EAE model mice; 5 µg/body group compared with the physiological saline group): suppressed on day 25 and day 28 with a significant difference of 5%; average score ± SD (EAE model mice; 5 µg/body subcutaneously, Day 22 after primary antigen administration): 0.4 ± 0.7; average score ± SD (EAE model mice; 5 µg/body subcutaneously, Day 25 after primary antigen administration): 1.0 ± 1.1; average score ± SD (EAE model mice; 5 µg/body subcutaneously, Day 28 after primary antigen administration): 0.7 ± 0.8; onset of EAE (EAE model mice; 25 µg/body group compared with the physiological saline group, from day 22): suppressed from day 22 with a significant difference of 5%; onset of EAE (EAE model mice; 25 µg/body group compared with the physiological saline group, from day 25): suppressed with a significant difference of 1%; average score ± SD (EAE model mice; 25 µg/body subcutaneously, Day 22 after primary antigen administration): 0.3 ± 0.4; average score ± SD (EAE model mice; 25 µg/body subcutaneously, Day 25 after primary antigen administration): 0.1 ± 0.3; average score ± SD (EAE model mice; 25 µg/body subcutaneously, Day 28 after primary antigen administration): 0.0 ± 0.0; onset of EAE (EAE model mice; administration of Peptide (I), overall statement): suppressed
AKLTFGAG [Peptide (XI)]	–	19.9 ± 15.9	15.3 ± 14.3	–	antibody production (anti-KLH) [1, 3]: significantly suppressed; antibody production (anti-OVA) [2, 4]: significantly suppressed
